Test results: paper PMC3867265 (Science signaling, 2013)
Numbering of substitutions follows the chain as printed. Names may count otherwise. “Also recorded” adds a separate entry of the source.

B1: mouse MT2-P95L mutant, Rluc8 and YFP fusion proteins (receptor, UniProt Q8CIQ6 1-364, looked up)
chain: MPENSSIPNCCEASGLAARPSWSGSAGARPPVTARAPWVAPMLSTVVVVTTAVDFVGNLLVILSVLRNRKLRNAGNLFVVSLALADLVIALYPYLLILVAIIRDGWVLGEAHCKASAFVMGLSVIGSVFNITAIAINRYCCICHSTTYHRVCSHWYTPIYISLVWLLTLVALVPNFFVGSLEYDPRIYSCTFIQTASTQYTAAVVAIHFLLPMAVVSFCYLRIWVLVLQARRKAKATRKLRLRPSDLRSFLTMFAVFVVFAICWAPLNCIGLAVAINPEAMALQVPEGLFVTSYFLAYFNSCLNAIVYGLLNQNFRREYKRILLAIWNTRRCIQHASKHCLTEERQGPTPPAARATVPVKEGAL
B2: mouse melatonin receptor type 2 (MT2), Rluc8 and YFP fusion proteins (receptor, UniProt Q8CIQ6 1-364, looked up)
chain: B1 chain with L95P
B3: mouse melatonin receptor type 1 (MT1), Rluc8 and YFP fusion proteins (receptor, UniProt Q61184 1-353, looked up)
chain: MKGNVSELLNATQQAPGGGEGGRPRPSWLASTLAFILIFTIVVDILGNLLVILSVYRNKKLRNSGNIFVVSLAVADLVVAVYPYPLVLTSILNNGWNLGYLHCQVSAFLMGLSVIGSIFNITGIAMNRYCYICHSLKYDKIYSNKNSLCYVFLIWMLTLIAIMPNLQTGTLQYDPRIYSCTFTQSVSSAYTIAVVVFHFIVPMIIVIFCYLRIWVLVLQVRRRVKPDNKPKLKPQDFRNFVTMFVVFVLFAICWAPLNLIGLIVASDPATMVPRIPEWLFVASYYLAYFNSCLNAIIYGLLNQNFRKEYKKIIVSLCTAKMFFVESSNEEADKIKCKPSPLIPNNNLIKVDSV

Key:
MT1 [1] = target: T1, MT1 (Mus musculus, UniProt Q61184); experiment: cell-based
MT1/MT2 heteromers [2] = target: T2, MT1/MT2 heteromers (Mus musculus, UniProt Q61184+Q8CIQ6); experiment: cell-based
Target sequence in this assay (Q8CIQ6 whole entry, one chain of several): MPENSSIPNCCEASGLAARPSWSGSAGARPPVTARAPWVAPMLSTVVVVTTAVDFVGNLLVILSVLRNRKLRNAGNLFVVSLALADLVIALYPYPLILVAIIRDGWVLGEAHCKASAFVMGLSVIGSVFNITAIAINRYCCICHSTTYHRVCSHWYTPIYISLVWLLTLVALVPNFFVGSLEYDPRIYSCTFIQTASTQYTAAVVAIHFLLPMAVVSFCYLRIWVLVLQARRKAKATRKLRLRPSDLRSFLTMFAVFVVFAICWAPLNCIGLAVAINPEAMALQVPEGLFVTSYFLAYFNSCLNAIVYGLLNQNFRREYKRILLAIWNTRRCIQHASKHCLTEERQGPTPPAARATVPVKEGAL

C3H-f+/+ mice [3] = experiment: Scotopic; format: in vivo, mouse; conditions: for effect on the melatonin-induced increase in the amplitude of the a- and b-wave: intravitreal antagonist, then melatonin i.p. 1 mg/kg; for amplitude of the a- and b-wave, compound alone: intravitreal injection alone, no melatonin
mouse photoreceptors = experiment: Photoreceptor response; format: in vivo; conditions: for mimicking of the photoreceptor response to melatonin (a-wave at 7 ms): intravitreal injection of the agent; for effect on the melatonin-induced photoreceptor response (a-wave at 7 ms): intravitreal injection of the agent plus melatonin
MT1/MT2 heteromers [4] = target: T2, MT1/MT2 heteromers
[5] = target: wild-type MT1 receptor with the inactive MT2-P95L mutant (Mus musculus, UniProt Q61184); conditions: cells coexpressing wild-type MT1 with inactive MT2-P95L mutant
MT1 [6] = target: T1, MT1; conditions: HEK293T cells expressing MT1 alone, compared with MT1/MT2 heteromers
MT2-/- mice = experiment: Scotopic; format: in vivo, mouse; conditions: i.p. 1 mg/kg at ZT6, 1 h dark adaptation
MT1 [7] = target: T1, MT1; conditions: HEK293T cells expressing MT1 alone
C3H-f+/+ mice [8] = conditions: exogenous administration during the day, wild-type mice; cited from earlier work
MT2 = target: T3, MT2 (Mus musculus, UniProt Q8CIQ6); experiment: Inositol phosphate production, HEK293T cells expressing MT2 alone; format: cell-based
T3 sequence (Q8CIQ6 1-364): B1 chain with L95P

MT1 and MT2 receptors = MT1 and MT2 receptors (Mus musculus, UniProt Q61184+Q8CIQ6)
mouse MT1 receptor = mouse MT1 receptor (Mus musculus, UniProt Q61184); experiment: Competition of 2-[125I]iodo-melatonin binding at mouse MT1; conditions: mouse MT1, membranes of HEK293 cells
mouse MT2 receptor = target: T4, mouse MT2 receptor (Mus musculus, UniProt Q8CIQ6); experiment: Competition of 2-[125I]iodo-melatonin binding at mouse MT2; conditions: mouse MT2, membranes of HEK293 cells
T4 sequence (Q8CIQ6 1-364): B1 chain with L95P

[9] = target: B2; experiment: FRET or BRET
[10] = target: B3; experiment: FRET or BRET
FRET or BRET = target: the molecule itself; experiment: FRET or BRET

Chain of MT1 and MT2 receptors (Q8CIQ6 whole entry, one chain of several): as above

CCC(=O)N[C@@H]1Cc2ccccc2[C@H](c2ccccc2)C1 (relative stereo) [4P-PDOT, cis-4-Phenyl-2-propionamidotetralin]
IC50 (MT1 [1]): 5.8 ± 7.7 nM | IC50 (MT1/MT2 heteromers [2]): 4 ± 3.5 nM | effect on the melatonin-induced increase in the amplitude of the a- and b-wave (C3H-f+/+ mice [3]): prevented the increase | amplitude of the a- and b-wave, compound alone (C3H-f+/+ mice [3]): did not produce any significant changes

CN1CCCC1CCn1cc(C2=C(c3c[nH]c4ccccc34)C(=O)NC2=O)c2ccccc21 (stereo not drawn) [Bisl, Bisindolylmaleimide II]
block of the effect of exogenous melatonin on photoreceptors (mouse photoreceptors; intravitreal PKC inhibitor plus melatonin): about 40%

CC(=O)NCCc1c(Cc2ccccc2)[nH]c2ccccc12 [luzindole]
effect on the melatonin-induced increase in the amplitude of the a- and b-wave (C3H-f+/+ mice [3]): prevented the increase | amplitude of the a- and b-wave, compound alone (C3H-f+/+ mice [3]): did not produce any significant changes

CCCCCCCCCCCCCC(=O)O[C@@H]1[C@@H](C)[C@@]2(O)[C@@H](C=C(CO)C[C@]3(O)C(=O)C(C)=C[C@@H]23)[C@@H]2C(C)(C)[C@]12OC(C)=O [PMA, Phorbol 12-myristate 13-acetate]
mimicking of the photoreceptor response to melatonin (a-wave at 7 ms) (mouse photoreceptors): mimicked | effect on the melatonin-induced photoreceptor response (a-wave at 7 ms) (mouse photoreceptors): significantly reduced

Nc1ncnc2c1nc(Br)n2[C@@H]1O[C@@H]2COP(=O)(O)O[C@H]2[C@H]1O [8-br-cAMP, 8-bromoadenosine 3′,5′-cyclic monophosphate]
effect on the melatonin-induced photoreceptor response (a-wave at 7 ms) (mouse photoreceptors): had no effect

Cl.NC(CSSCC(N)C(=O)N1CCn2cc(-c3ccccc3)nc2C1CC1CCCCC1)C(=O)N1CCn2cc(-c3ccccc3)nc2C1CC1CCCCC1 (stereo not drawn) [BIM 46187, 7-[2-amino-1-oxo-3-thio-propyl]-8-cyclohexylmethyl-2-phenyl-5,6,7,8-tetrahydro-i midazo-[1,2a]-pyrazine dimer, hydrochloride]
effect on the melatonin-induced photoreceptor response (a-wave at 7 ms) (mouse photoreceptors): inhibited

Cl.Cl.O=S(=O)(NCCNC/C=C/c1ccc(Br)cc1)c1cccc2cnccc12 [H89, H-89 dihydrochloride hydrate]
mimicking of the photoreceptor response to melatonin (a-wave at 7 ms) (mouse photoreceptors): did not mimic | effect on the melatonin-induced photoreceptor response (a-wave at 7 ms) (mouse photoreceptors): did not affect

COc1ccc2[nH]cc(CCNC(C)=O)c2c1 [melatonin]
PKC activity (MT1/MT2 heteromers [4]; HEK293T cells expressing MT1/MT2 heteromers, increasing concentrations): dose-dependently increased | PKC activity with coexpressed MT2-P95L (MT1/MT2 heteromers [4]; MT1/MT2 heteromers plus dominant negative MT2-P95L mutant, 100 nM melatonin): potently inhibited | photoreceptor response (a-wave at 7 ms) (mouse photoreceptors; exogenous melatonin, ZT 6): significantly increased | inositol phosphate production, result in words [5]: completely abolished | PKC activity (MT1 [6]): less potently | changes in the dark-adapted ERG (MT2-/- mice): did not produce any changes | inositol phosphate production, result in words (MT1 [7]): inactive; also recorded: only at supra-physiological melatonin amount | amplitudes of a- and b-waves of the scotopic ERG (C3H-f+/+ mice [8]): increases the amplitudes | EC50 (MT2): 51 nM | inositol phosphate production, result in words (MT2; HEK293T cells expressing MT2 alone): unable to modulate this pathway | inhibition of cAMP production (MT1 and MT2 receptors): not impaired but rather improved

CCCC(=O)NCCc1c2n(c3ccc(OC)cc13)Cc1ccccc1-2 [IIK7]
Ki (mouse MT1 receptor): 73 ± 23 nM | Ki (mouse MT2 receptor): 0.052 ± 0.015 nM | amplitude of the a- or b-wave (C3H-f+/+ mice [3]; intravitreal 50 nM (MT2-selective concentration), C3H-f+/+ mice): did not increase | amplitude of the a- and b-wave (C3H-f+/+ mice [3]; intravitreal 5 μM (activates MT1 and MT2), C3H-f+/+ mice): significantly increased

B1
BRET50 [9]: 1.52 | BRET50 [10]: 3.48 | BRET50 (FRET or BRET): 2.61

B2
BRET50 [10]: 1.67

B3
BRET50 (FRET or BRET): 0.71
